From paper PMC8333425, “Discovery of a dual Ras and ARF6 inhibitor from a GPCR endocytosis screen” (Nature Communications, 2021)

Experiments:
Experiment in all cases: KINOMEscan kinase binding assay
[1] = molecular target: T1, 384 kinases from the human genome (Homo sapiens, UniProt P25098); conditions: kinase GRK2 (Entrez ADRBK1)
T1 construct: purchased Eurofin/DiscoverX
Outline: (§1)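 Competition binding (KINOMEscan) across 384 human kinases with compound at 10 µM. Ligand binding was expressed relative to DMSO (100%) as the average of duplicates from one experiment. S(10) selectivity score was derived.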

[2] = molecular target: T2, 384 kinases from the human genome (Homo sapiens, UniProt Q14289); conditions: kinase PYK2 (Entrez PTK2B)
T2 construct: purchased Eurofin/DiscoverX
Outline: as §1

[3] = molecular target: T3, 384 kinases from the human genome (Homo sapiens, UniProt P07947); conditions: kinase YES (Entrez YES1)
T3 construct: purchased Eurofin/DiscoverX
Outline: as §1

[4] = molecular target: T4, 384 kinases from the human genome (Homo sapiens, UniProt O43353); conditions: kinase RIPK2 (Entrez RIPK2)
T4 construct: purchased Eurofin/DiscoverX
Outline: as §1

[5] = molecular target: T5, 384 kinases from the human genome (Homo sapiens, UniProt Q8IWQ3); conditions: kinase BRSK2 (Entrez BRSK2)
T5 construct: purchased Eurofin/DiscoverX
Outline: as §1

[6] = molecular target: T6, 384 kinases from the human genome (Homo sapiens, UniProt P00533)
T6 construct: purchased Eurofin/DiscoverX
Outline: as §1

[7] = molecular target: T7, 384 kinases from the human genome (Homo sapiens, UniProt P51813); conditions: kinase BMX (Entrez BMX)
T7 construct: purchased Eurofin/DiscoverX
Outline: as §1

[8] = molecular target: T8, 384 kinases from the human genome (Homo sapiens, UniProt P21127); conditions: kinase CDC2L1 (Entrez CDK11B)
T8 construct: purchased Eurofin/DiscoverX
Outline: as §1

[9] = molecular target: T9, 384 kinases from the human genome (Homo sapiens, UniProt P78368); conditions: kinase CSNK1G2 (Entrez CSNK1G2)
T9 construct: purchased Eurofin/DiscoverX
Outline: as §1

[10] = molecular target: T10, 384 kinases from the human genome (Homo sapiens, UniProt Q13188); conditions: kinase MST2 (Entrez STK3)
T10 construct: purchased Eurofin/DiscoverX
Outline: as §1

[11] = molecular target: T11, 384 kinases from the human genome (Homo sapiens, UniProt Q8TF76); conditions: kinase HASPIN (Entrez GSG2)
T11 construct: purchased Eurofin/DiscoverX
Outline: as §1

[12] = molecular target: T12, 384 kinases from the human genome (Homo sapiens, UniProt P54753); conditions: kinase EPHB3 (Entrez EPHB3)
T12 construct: purchased Eurofin/DiscoverX
Outline: as §1

[13] = molecular target: T13, 384 kinases from the human genome (Homo sapiens, UniProt Q13627); conditions: kinase DYRK1A (Entrez DYRK1A)
T13 construct: purchased Eurofin/DiscoverX
Outline: as §1

[14] = molecular target: T14, 384 kinases from the human genome (Homo sapiens, UniProt Q8TD19); conditions: kinase NEK9 (Entrez NEK9)
T14 construct: purchased Eurofin/DiscoverX
Outline: as §1

[15] = molecular target: T15, 384 kinases from the human genome (Homo sapiens, UniProt P54756); conditions: kinase EPHA5 (Entrez EPHA5)
T15 construct: purchased Eurofin/DiscoverX
Outline: as §1

[16] = molecular target: T16, 384 kinases from the human genome (Homo sapiens, UniProt P36896); conditions: kinase ACVR1B (Entrez ACVR1B)
T16 construct: purchased Eurofin/DiscoverX
Outline: as §1

[17] = molecular target: T17, 384 kinases from the human genome (Homo sapiens, UniProt O95747); conditions: kinase OSR1 (Entrez OXSR1)
T17 construct: purchased Eurofin/DiscoverX
Outline: as §1

[18] = molecular target: T18, 384 kinases from the human genome (Homo sapiens, UniProt Q9Y4K4); conditions: kinase MAP4K5 (Entrez MAP4K5)
T18 construct: purchased Eurofin/DiscoverX
Outline: as §1

[19] = molecular target: T19, 384 kinases from the human genome (Homo sapiens, UniProt Q9Y616); conditions: kinase IRAK3 (Entrez IRAK3)
T19 construct: purchased Eurofin/DiscoverX
Outline: as §1

[20] = molecular target: T20, 384 kinases from the human genome (Homo sapiens, UniProt Q15746); conditions: kinase MYLK (Entrez MYLK)
T20 construct: purchased Eurofin/DiscoverX
Outline: as §1

[21] = molecular target: T21, 384 kinases from the human genome (Homo sapiens, UniProt Q07002); conditions: kinase PCTK3 (Entrez CDK18)
T21 construct: purchased Eurofin/DiscoverX
Outline: as §1

[22] = molecular target: T22, 384 kinases from the human genome (Homo sapiens, UniProt O14730); conditions: kinase RIOK3 (Entrez RIOK3)
T22 construct: purchased Eurofin/DiscoverX
Outline: as §1

[23] = molecular target: T23, 384 kinases from the human genome (Homo sapiens, UniProt Q8N5S9); conditions: kinase CAMKK1 (Entrez CAMKK1)
T23 construct: purchased Eurofin/DiscoverX
Outline: as §1

[24] = molecular target: T24, 384 kinases from the human genome (Homo sapiens, UniProt Q13873); conditions: kinase BMPR2 (Entrez BMPR2)
T24 construct: purchased Eurofin/DiscoverX
Outline: as §1

[25] = molecular target: T25, 384 kinases from the human genome (Homo sapiens, UniProt O14920); conditions: kinase IKK-beta (Entrez IKBKB)
T25 construct: purchased Eurofin/DiscoverX
Outline: as §1

[26] = molecular target: T26, 384 kinases from the human genome (Homo sapiens, UniProt Q15139); conditions: kinase PRKD1 (Entrez PRKD1)
T26 construct: purchased Eurofin/DiscoverX
Outline: as §1

T6 sequence (P00533 25-1210): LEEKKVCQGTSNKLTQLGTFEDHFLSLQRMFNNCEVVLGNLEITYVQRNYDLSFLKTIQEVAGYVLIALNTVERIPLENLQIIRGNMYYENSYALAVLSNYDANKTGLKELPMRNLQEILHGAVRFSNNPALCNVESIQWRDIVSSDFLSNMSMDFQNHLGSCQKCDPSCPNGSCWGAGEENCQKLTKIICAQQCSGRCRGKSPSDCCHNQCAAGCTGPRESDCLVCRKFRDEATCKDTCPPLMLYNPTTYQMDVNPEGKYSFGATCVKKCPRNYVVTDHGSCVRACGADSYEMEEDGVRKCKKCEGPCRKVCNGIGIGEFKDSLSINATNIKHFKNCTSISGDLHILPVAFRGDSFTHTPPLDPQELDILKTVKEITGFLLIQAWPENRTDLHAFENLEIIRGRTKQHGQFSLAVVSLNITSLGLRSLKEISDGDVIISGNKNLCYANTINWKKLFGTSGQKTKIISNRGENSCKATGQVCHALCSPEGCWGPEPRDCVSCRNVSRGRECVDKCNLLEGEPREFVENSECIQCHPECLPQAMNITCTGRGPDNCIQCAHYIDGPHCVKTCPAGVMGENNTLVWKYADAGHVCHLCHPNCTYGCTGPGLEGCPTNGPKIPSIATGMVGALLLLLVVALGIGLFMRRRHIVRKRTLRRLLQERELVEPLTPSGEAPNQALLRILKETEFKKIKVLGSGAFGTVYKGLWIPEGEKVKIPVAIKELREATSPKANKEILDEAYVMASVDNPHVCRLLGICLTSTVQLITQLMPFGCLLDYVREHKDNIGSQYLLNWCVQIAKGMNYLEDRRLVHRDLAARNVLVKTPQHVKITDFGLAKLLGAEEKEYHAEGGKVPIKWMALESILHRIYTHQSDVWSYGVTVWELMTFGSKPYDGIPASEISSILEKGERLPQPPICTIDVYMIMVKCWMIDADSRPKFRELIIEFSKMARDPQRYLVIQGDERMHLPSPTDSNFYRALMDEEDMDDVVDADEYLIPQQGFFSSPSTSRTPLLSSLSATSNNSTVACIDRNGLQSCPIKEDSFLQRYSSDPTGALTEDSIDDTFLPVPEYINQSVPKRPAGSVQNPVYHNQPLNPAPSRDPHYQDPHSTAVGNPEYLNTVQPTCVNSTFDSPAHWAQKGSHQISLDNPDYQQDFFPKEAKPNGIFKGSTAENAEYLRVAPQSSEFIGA
T2 sequence (Q14289 whole entry): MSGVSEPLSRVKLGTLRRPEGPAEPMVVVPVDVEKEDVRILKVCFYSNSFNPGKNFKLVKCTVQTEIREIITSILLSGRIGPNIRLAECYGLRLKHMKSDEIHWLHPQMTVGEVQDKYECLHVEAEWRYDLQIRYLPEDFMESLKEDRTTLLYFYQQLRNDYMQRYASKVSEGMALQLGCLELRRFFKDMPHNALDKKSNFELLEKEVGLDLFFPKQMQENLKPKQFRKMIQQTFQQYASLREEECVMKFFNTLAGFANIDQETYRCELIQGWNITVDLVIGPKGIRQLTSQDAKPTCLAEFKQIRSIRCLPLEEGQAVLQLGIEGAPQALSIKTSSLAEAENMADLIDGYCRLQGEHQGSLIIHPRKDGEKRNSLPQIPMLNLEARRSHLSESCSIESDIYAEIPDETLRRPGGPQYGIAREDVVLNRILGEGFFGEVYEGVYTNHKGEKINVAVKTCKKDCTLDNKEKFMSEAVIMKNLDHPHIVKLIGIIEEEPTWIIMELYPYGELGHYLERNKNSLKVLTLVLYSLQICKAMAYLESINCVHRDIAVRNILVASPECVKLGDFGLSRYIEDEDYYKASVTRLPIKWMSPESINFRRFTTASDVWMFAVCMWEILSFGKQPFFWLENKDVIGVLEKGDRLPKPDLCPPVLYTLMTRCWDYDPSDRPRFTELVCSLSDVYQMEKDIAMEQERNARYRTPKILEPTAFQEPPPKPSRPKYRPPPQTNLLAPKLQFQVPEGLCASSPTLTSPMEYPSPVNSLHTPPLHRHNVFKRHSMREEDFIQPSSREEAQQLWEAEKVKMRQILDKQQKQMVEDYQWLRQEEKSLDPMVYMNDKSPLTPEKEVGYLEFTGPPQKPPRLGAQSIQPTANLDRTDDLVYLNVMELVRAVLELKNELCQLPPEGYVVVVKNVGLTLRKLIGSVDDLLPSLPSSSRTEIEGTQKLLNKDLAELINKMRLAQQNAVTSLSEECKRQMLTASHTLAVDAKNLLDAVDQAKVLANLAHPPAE
T26 sequence (Q15139 whole entry): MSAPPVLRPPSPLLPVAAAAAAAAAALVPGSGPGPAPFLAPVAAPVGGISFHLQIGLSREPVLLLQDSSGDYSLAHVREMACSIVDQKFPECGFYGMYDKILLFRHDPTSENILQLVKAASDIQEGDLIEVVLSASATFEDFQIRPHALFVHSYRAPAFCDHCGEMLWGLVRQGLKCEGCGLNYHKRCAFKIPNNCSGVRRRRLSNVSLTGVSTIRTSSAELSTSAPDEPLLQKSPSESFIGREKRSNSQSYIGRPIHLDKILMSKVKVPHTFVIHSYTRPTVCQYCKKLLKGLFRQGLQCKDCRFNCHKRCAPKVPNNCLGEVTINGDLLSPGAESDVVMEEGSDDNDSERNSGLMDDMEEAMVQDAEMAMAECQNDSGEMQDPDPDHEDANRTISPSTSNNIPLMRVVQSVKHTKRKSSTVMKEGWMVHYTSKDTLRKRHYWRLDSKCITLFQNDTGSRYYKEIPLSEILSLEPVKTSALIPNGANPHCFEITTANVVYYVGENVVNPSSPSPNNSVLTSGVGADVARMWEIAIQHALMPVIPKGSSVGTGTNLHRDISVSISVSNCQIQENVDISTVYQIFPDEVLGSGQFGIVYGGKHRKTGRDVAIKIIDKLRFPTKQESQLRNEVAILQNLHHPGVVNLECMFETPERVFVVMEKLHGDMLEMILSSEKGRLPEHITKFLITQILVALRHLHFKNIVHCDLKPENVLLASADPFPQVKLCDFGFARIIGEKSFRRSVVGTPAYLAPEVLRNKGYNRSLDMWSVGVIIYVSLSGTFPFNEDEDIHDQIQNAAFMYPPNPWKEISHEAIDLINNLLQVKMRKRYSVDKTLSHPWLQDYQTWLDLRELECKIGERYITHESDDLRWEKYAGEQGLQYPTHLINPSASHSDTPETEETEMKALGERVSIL
T22 sequence (O14730 whole entry): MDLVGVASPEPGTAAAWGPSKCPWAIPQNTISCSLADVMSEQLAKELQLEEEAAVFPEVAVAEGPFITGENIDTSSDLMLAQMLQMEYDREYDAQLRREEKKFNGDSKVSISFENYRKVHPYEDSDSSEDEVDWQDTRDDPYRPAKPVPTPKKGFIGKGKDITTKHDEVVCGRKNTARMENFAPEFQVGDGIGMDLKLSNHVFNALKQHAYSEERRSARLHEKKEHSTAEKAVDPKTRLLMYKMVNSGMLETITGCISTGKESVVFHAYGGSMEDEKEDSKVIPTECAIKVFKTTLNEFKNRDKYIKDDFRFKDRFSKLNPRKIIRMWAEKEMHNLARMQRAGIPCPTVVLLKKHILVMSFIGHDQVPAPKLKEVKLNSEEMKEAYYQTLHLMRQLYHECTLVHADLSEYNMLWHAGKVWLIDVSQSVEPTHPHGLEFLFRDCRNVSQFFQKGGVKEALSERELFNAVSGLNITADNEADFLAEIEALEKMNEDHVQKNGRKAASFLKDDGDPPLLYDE
T21 sequence (Q07002 whole entry): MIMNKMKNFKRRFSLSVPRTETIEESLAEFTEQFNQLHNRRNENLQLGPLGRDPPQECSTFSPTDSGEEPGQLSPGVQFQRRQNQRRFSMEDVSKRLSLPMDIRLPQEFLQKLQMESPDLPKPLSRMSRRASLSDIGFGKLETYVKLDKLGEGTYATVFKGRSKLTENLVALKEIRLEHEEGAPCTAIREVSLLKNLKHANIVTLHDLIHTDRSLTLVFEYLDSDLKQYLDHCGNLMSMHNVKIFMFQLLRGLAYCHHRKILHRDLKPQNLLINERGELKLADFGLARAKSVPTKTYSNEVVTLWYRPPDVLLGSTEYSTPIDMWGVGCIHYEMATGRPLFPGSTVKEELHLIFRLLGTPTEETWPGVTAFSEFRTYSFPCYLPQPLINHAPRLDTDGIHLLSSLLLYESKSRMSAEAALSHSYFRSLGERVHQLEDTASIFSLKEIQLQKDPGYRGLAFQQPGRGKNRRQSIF
T9 sequence (P78368 whole entry): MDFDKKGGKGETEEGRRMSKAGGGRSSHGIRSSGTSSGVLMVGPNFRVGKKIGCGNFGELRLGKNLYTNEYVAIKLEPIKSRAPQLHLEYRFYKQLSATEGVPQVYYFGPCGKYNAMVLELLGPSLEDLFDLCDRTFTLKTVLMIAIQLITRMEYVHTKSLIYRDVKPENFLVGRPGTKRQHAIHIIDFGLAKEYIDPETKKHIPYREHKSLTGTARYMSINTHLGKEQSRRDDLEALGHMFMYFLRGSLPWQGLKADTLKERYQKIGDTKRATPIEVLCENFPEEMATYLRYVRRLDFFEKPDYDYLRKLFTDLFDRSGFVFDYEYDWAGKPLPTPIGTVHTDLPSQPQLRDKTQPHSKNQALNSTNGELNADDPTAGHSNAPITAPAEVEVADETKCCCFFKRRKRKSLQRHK
T4 sequence (O43353 whole entry): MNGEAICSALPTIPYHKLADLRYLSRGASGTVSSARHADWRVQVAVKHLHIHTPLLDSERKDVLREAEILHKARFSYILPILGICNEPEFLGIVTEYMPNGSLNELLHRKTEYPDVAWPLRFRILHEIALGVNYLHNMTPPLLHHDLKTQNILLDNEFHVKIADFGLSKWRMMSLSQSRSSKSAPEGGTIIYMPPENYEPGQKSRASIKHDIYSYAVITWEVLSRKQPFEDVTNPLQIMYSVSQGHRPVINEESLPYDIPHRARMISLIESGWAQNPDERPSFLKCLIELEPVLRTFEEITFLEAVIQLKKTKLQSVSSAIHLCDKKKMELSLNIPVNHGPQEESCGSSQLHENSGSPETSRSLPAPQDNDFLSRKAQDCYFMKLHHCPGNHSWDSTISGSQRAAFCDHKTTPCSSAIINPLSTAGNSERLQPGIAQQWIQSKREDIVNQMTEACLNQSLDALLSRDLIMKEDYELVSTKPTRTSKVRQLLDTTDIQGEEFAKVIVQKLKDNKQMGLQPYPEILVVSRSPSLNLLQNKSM

Compound: CC(C)C(=O)N1CCN(c2ccc(NC(=O)c3cc4ccccc4o3)cc2Cl)CC1 [Compound 21]
- Percent Control [1]: 99%
- Percent Control [2]: 96%
- Percent Control [3]: 89%
- Percent Control [4]: 81%
- Percent Control [5]: 97%
- binding to EGFR ([6]; 10 µM of 21): failed to bind
- Percent Control ([6]; kinase EGFR (Entrez EGFR)): 89%
- Percent Control [7]: 68%
- Percent Control [8]: 100%
- Percent Control [9]: 92%
- Percent Control [10]: 95%
- Percent Control [11]: 98%
- Percent Control [12]: 83%
- Percent Control [13]: 98%
- Percent Control [14]: 100%
- Percent Control [15]: 100%
- Percent Control [16]: 85%
- Percent Control [17]: 95%
- Percent Control [18]: 80%
- Percent Control [19]: 67%
- Percent Control [20]: 93%
- Percent Control [21]: 96%
- Percent Control [22]: 100%
- Percent Control [23]: 100%
- Percent Control [24]: 88%
- Percent Control [25]: 98%
- Percent Control [26]: 97%
